Data on one molecule can be found in US20130310256A1, “HERBICIDAL COMPOSITIONS COMPRISING 4-AMINO-3-CHLORO-5-FLUORO-6-(4-CHLORO-2-FLUORO-3-METHOXYPHENYL) PYRIDINE-2-CARBOXYLIC ACID OR A DERIVATIVE THEREOF AND VLCFA AND LIPID SYNTHESIS INHIBITING HERBICIDES” (DOW AGROSCIENCES LLC, priority 2008, published 2013).

Molecules are shown by their SMILES.

One assay deals with XANST. Briefly: Example IV: pre-emergence soil-applied weed control, greenhouse. Format: in vivo, Xanthium strumarium L. (common cocklebur). To be noted: 32 gae/ha, 29 DAA. From the text: (§1) Seeds or nutlets of the desired test plant species were planted in a soil matrix prepared by mixing a loam soil (32 percent silt, 23 percent clay, and 45 percent sand, with a pH of about 6.5 and an organic matter content of about 1.9 percent) and calcareous grit in an 80 to 20 ratio. The soil matrix was contained in plastic pots with a volume of 1 quart and a surface area of 83.6 square centimeters (cm^2).
(§2) Treatments consisted of the benzyl ester of 4-amino-3-chloro-5-fluoro-6-(4-chloro-2-fluoro-3-methoxy-phenyl)pyridine-2-carboxylic acid (compound A) formulated as an SC (suspension concentrate) and various herbicidal components alone and in combination. Forms of compound A were applied on an acid equivalent basis.
(§3) Other herbicidal components were applied on an active ingredient basis and included very long chain fatty acid (VLCFA) synthesis-inhibiting and fatty acid/lipid synthesis-inhibiting herbicides alachlor (technical grade material), dimethenamid-P formulated as Outlook®, and S-metolachlor formulated as Dual® II Magnum.
(§4) Treatment requirements were calculated based upon the rates being tested, the concentration of active ingredient or acid equivalent in the formulation, and a 12 mL application volume at a rate of 187 L/ha.
(§5) For treatments comprised of formulated compounds, measured amounts of compounds were placed individually in 25 mL glass vials and diluted in a volume of 1.25% (v/v) Agri-Dex® crop oil concentrate (COC) to obtain 12× stock solutions. […] Application solutions were prepared by adding an appropriate amount of each stock solution (e.g., 1 mL) and diluted to the appropriate final concentrations with the addition of 10 mL of an aqueous mixture of 1.25% (v/v) COC so that the final spray solutions contained 1.25% (v/v) COC.
For treatments comprised of technical compounds, weighed amounts can be placed individually in 25 mL glass vials and dissolved in a volume of 97:3 (v/v) acetone/DMSO to obtain 12× stock solutions. […] Application solutions can be prepared by adding an appropriate amount of each stock solution (e.g., 1 mL) and diluted to the appropriate final concentrations with the addition of 10 mL of an aqueous mixture of 1.5% (v/v) COC so that the final spray solutions contain 1.25% (v/v) COC. […]
For treatments comprised of formulated and technical compounds, weighed amounts of the technical materials were placed individually in 25 mL glass vials and dissolved in a volume of 97:3 (v/v) acetone/DMSO to obtain 12× stock solutions, and measured amounts of the formulated compounds were placed individually in 25 mL glass vials and diluted in a volume of 1.5% (v/v) COC or water to obtain 12× stock solutions. […]

In a further assay the test system is SASKR. Kind of assay: Example III: post-emergence foliar-applied weed control in cereal crops, greenhouse. The settings on record: 21 DAA. Format: in vivo, Salsola tragus L. Here is the method: (§6) Seeds of the desired test plant species were planted in Sun Gro MetroMix® 306 planting mixture, which typically has a pH of 6.0 to 6.8 and an organic matter content of about 30 percent, in plastic pots with a surface area of 103.2 square centimeters (cm^2). When required to ensure good germination and healthy plants, a fungicide treatment and/or other chemical or physical treatment was applied. The plants were grown for 7-36 days in a greenhouse with an approximate 14 hour photoperiod which was maintained at about 18° C. during the day and 17° C. during the night. Nutrients and water were added on a regular basis and supplemental lighting was provided with overhead metal halide 1000-Watt lamps as necessary. The plants were employed for testing when they reached the second or third true leaf stage.
(§7) Treatments consisted of the benzyl ester of 4-amino-3-chloro-5-fluoro-6-(4-chloro-2-fluoro-3-methoxy-phenyl)pyridine-2-carboxylic acid (Compound A), formulated as an SC (suspension concentrate), and a second cereal herbicide alone and in combination.
(§8) Measured aliquots of the benzyl ester of 4-amino-3-chloro-5-fluoro-6-(4-chloro-2-fluoro-3-methoxy-phenyl)pyridine-2-carboxylic acid (Compound A) were placed in 25 milliliter (mL) glass vials and diluted in a volume of 1.25% (v/v) Agri-dex crop oil concentrated to obtain stock solutions. Compound requirements are based upon a 12 mL application volume at a rate of 187 liters per hectare (L/ha). Spray solutions of the second cereal herbicide and experimental compound mixtures were prepared by adding the stock solutions to the appropriate amount of dilution solution to form 12 mL spray solution with active ingredients in two- and three-way combinations. Formulated compounds were applied to the plant material with an overhead Mandel track sprayer equipped with an 8002E nozzle calibrated to deliver 187 L/ha over an application area of 0.503 square meters (m^2) at a spray height of 18 inches (46 cm) above average plant canopy. Control plants were sprayed in the same manner with the solvent blank.
(§9) The treated plants and control plants were placed in a greenhouse as described above and watered by sub-irrigation to prevent wash-off of the test compounds. After 20-22 days, the condition of the test plants as compared with that of the control plants was determined visually and scored on a scale of 0 to 100 percent where 0 corresponds to no injury and 100 corresponds to complete kill.
(§10) Colby's equation was used to determine the herbicidal effects expected from the mixtures (Colby, S. R. 1967. Calculation of the synergistic and antagonistic response of herbicide combinations. Weeds 15:20-22.).

A further assay has as its system IPOHE. Kind of assay: Example IV: pre-emergence soil-applied weed control, greenhouse. The format is in vivo, Ipomoea hederacea Jacq. (ivyleaf morningglory).
Text: as §1, §2, §3, §4, §5
For treatments comprised of technical compounds, weighed amounts can be placed individually in 25 mL glass vials and dissolved in a volume of 97:3 (v/v) acetone/DMSO to obtain 12× stock solutions. […] Application solutions can be prepared by adding an appropriate amount of each stock solution (e.g., 1 mL) and diluted to the appropriate final concentrations with the addition of 10 mL of an aqueous mixture of 1.5% (v/v) COC so that the final spray solutions contain 1.25% (v/v) COC. When technical materials are used, the concentrated stock solutions can be added to the spray solutions so that the final acetone and DMSO concentrations of the application solutions are 16.2% and 0.5%, respectively.
For treatments comprised of formulated and technical compounds, weighed amounts of the technical materials were placed individually in 25 mL glass vials and dissolved in a volume of 97:3 (v/v) acetone/DMSO to obtain 12× stock solutions, and measured amounts of the formulated compounds were placed individually in 25 mL glass vials and diluted in a volume of 1.5% (v/v) COC or water to obtain 12× stock solutions. […] Application solutions were prepared by adding an appropriate amount of each stock solution (e.g., 1 mL) and diluted to the appropriate final concentrations with the addition of an appropriate amount of an aqueous mixture of 1.5% (v/v) COC so that the final spray solutions contained 1.25% (v/v) COC. As required, additional water and/or 97:3 (v/v) acetone/DMSO was added to individual application solutions so that the final acetone and DMSO concentrations of the application solutions being compared were 8.1% and 0.25%, respectively.
All stock solutions and applications solutions were visually inspected for compound compatibility prior to application. Spray solutions were applied to the soil with an overhead Mandel track sprayer equipped with a 8002E nozzles calibrated to deliver 187 L/ha over an application area of 0.503 m^2 at a spray height of 18 inches (46 cm) above average pot height. Control pots were sprayed in the same manner with the solvent blank.
The treated and control pots were placed in a greenhouse and top watered as needed. […]

Another assay deals with KCHSC. Kind of assay: Example III: post-emergence foliar-applied weed control in cereal crops, greenhouse. Format: in vivo, Kochia scoparia (L.) Schrad. To be noted: 21 DAA. Here is the method:
as §6, §7, §8, §9, §10

The subject of the next assay is CHEAL. The assay is described as above. To be noted: 21 DAA. Format: in vivo, Chenopodium album L. Here is the method:
as §6, §7, §8, §9, §10

The test system of the next assay is CYPES. Briefly: Example I: postemergence foliar-applied weed control, greenhouse. The format is in vivo, Cyperus esculentus L. (yellow nutsedge).

With `COc1c(Cl)ccc(-c2nc(C(=O)OCc3ccccc3)c(Cl)c(N)c2F)c1F` [Compound A Benzyl Ester, benzyl ester of 4-amino-3-chloro-5-fluoro-6-(4-chloro-2-fluoro-3-methoxy-phenyl)pyridine-2-carboxylic acid], the “Visual Weed Control XANST Obs” value in the assay on XANST amounted to 5%. The results for the “Visual Weed Control SASKR Obs” value in the assay with SASKR (2.5 gai/ha), in the assay with SASKR (5 gai/ha) and in the assay on SASKR (10 gai/ha) were 15%, 50% and 67%, respectively. Besides, the “Visual Weed Control IPOHE Obs” value in the assay with IPOHE (16 gae/ha, 28 DAA) came to 13%; in the assay with IPOHE (32 gae/ha, 27 DAA) it was 28%; in the assay with IPOHE (32 gae/ha, 28 DAA), 23%. The “Visual Weed Control KCHSC Obs” value with KCHSC (2.5 gai/ha) stood at 20%; with KCHSC (5 gai/ha), 41%; in the assay on KCHSC (10 gai/ha), 62%. The “Visual Weed Control CHEAL Obs” value turned out to be 50% in the assay with CHEAL (2.5 gai/ha) and 58% in the assay on CHEAL (5 gai/ha). For the same molecule, the “Visual Weed Control (%) - 20 DAA CYPES Obs” value is 0% in the assay with CYPES (8 gae/ha) and 75% in the assay on CYPES (16 gae/ha). Further, the “Visual Weed Control (%) - 21 DAA CYPES Obs” value with CYPES (8 gae/ha) was determined as 85%.
